Source: patent US9862740B2, “Process for preparing novel forms of tiacumicin B” (Olon S.P.A., priority 2014, dated 2018)

Assay: Particle size distribution (Psd comparison) of Tiacumicin B crystals
Assay type: physicochemical
Settings: in µm (unit assumed)
Description: 3000 g of pure Tiacumicin B were dissolved in about 40 L of CH3OH. 80 L of (C2H5)2O were added under stirring to the solution at the room temperature. The solution was then heated at 39° C. and the mixer speed was set at 20 rpm; 160 L of n-Pentane were added in about 30 minutes. The mixer speed was then set at 15 rpm and the solution was cooled at 5° C. in about 5 hours. The suspension was then filtered and product dried under vacuum. The crystal obtained has a not well defined crystal shape and a high amount of fine that make the product difficult to formulate. […] of pure Tiacumicin B were dissolved in 33 mL of CH3OH. 66 mL of (C2H5)2O were added under stirring to the solution at the room temperature. The solution was then heated at 39° C. and the mixer speed was set at 400 rpm; 132 mL of n-Pentane were added in about 30 minutes. The mixer speed was then set at 200 rpm and the solution was cooled at 5° C. in about 60 minutes. The suspension was heated at 30° C. and maintained at this temperature for about 30 minutes; then the suspension was cooled at 5° C. in about 60 minutes. The suspension was heated at 25° C. and maintained at this temperature for about 30 minutes; then the suspension was cooled at 5° C. in about 60 minutes. The suspension was heated at 15° C. and maintained at this temperature for about 30 minutes; then the suspension was cooled at 5° C. in about 60 minutes and maintained in this condition over night. The crystals obtained has a different more homogeneous and regular crystal habit respect to that obtained with the standard process and an improved psd (see FIGS. 3 and 4 and Table). 2000 g of pure Tiacumicin B were dissolved in 26 L of CH3OH. 52 L of (C2H5)2O were added under stirring to the solution at the room temperature. The solution was then heated at 39° C. and the mixer speed was set at 20 rpm; 130 L of n-Pentane were added in about 30 minutes. The mixer speed was then set at 8 rpm and the solution was cooled at 35° C. and maintained at this temperature for about 60 minutes. The suspension was cooled at 30° C. and maintained at this temperature for about 60 minutes. Then the suspension was cooled at 25° C. and maintained at this temperature for about 30 minutes. Then the suspension was cooled at 20° C. and maintained at this temperature for about 30 minutes. Then the suspension was cooled at 15° C. and maintained at this temperature for about 30 minutes. Then the suspension was cooled at 10° C. and maintained at this temperature for about 30 minutes. Then the suspension was cooled at 5° C. and maintained at this temperature for about 30 minutes. The suspension was heated at 30° C. and maintained at this temperature for about 30 minutes; then the suspension was cooled at 5° C. in about 60 minutes. The suspension was heated at 25° C. and maintained at this temperature for about 30 minutes; then the suspension was cooled at 5° C. in about 60 minutes. The suspension was heated at 15° C. and maintained at this temperature for about 30 minutes; then the suspension was cooled at 5° C. in about 60 minutes and maintained in this condition over night. The crystals obtained has a different more homogeneous and regular crystal habit respect to that obtained with the standard process and an improved psd (see FIGS. 3 and 4 and Table).

Row | Compound | D(0.1) | D(0.5) | D(0.9)
1 | CCc1c(Cl)c(O)c(Cl)c(O)c1C(=O)O[C@H]1[C@H](O)[C@H](OC)[C@H](OC/C2=C\C=C\C[C@H](O)/C(C)=C/[C@H](CC)[C@@H](O[C@@H]3OC(C)(C)[C@@H](OC(=O)C(C)C)[C@H](O)[C@@H]3O)/C(C)=C/C(C)=C/C[C@@H]([C@@H](C)O)OC2=O)O[C@@H]1C [Example 3, Tiacumicin B] | 7.04 | 23.98 | 55.27
2 | CCc1c(Cl)c(O)c(Cl)c(O)c1C(=O)O[C@H]1[C@H](O)[C@H](OC)[C@H](OC/C2=C\C=C\C[C@H](O)/C(C)=C/[C@H](CC)[C@@H](O[C@@H]3OC(C)(C)[C@@H](OC(=O)C(C)C)[C@H](O)[C@@H]3O)/C(C)=C/C(C)=C/C[C@@H]([C@@H](C)O)OC2=O)O[C@@H]1C [Example 2, Tiacumicin B] | 10.82 | 35.94 | 73.79
3 | CCc1c(Cl)c(O)c(Cl)c(O)c1C(=O)O[C@H]1[C@H](O)[C@H](OC)[C@H](OC/C2=C\C=C\C[C@H](O)/C(C)=C/[C@H](CC)[C@@H](O[C@@H]3OC(C)(C)[C@@H](OC(=O)C(C)C)[C@H](O)[C@@H]3O)/C(C)=C/C(C)=C/C[C@@H]([C@@H](C)O)OC2=O)O[C@@H]1C [Example 1, Tiacumicin B] | 3.90 | 11.36 | 27.35
